Data: patent US20090192191A1, “Substituted hydroxamic acid derivatives as tnf inhibitors” (priority 2004, published 2009)

These compounds were tested on TNF-α (assay: In vitro screening for TNF-α inhibitory activity using rat whole blood assay). Settings: 10 μM test substance, LPS 1 μg/mL, 5 h at 37° C, plasma TNF-α by ELISA.
Assay type: cell-based
Description: In Vitro Screening for TNF-α Inhibitory Activity Using Rat Whole Blood Assay:
Rats were deeply anaesthetized with anesthetic ether and blood (6-8 mL) was collected through retro-orbital plexus in a tube containing heparin (100 IU/mL). Five hundred microlitre blood sample was incubated with different concentrations of the test substances for 15 min at 37° C. LPS (1 μg/mL, final concentration) was subsequently added and the mixture was further incubated for 5 h at 37° C. The reaction was terminated by placing the samples over ice for 15 min. The samples were then centrifuged at 1000 g for 15 min at 4° C. The plasma was separated and stored in deep freezer until the assay. TNF-α levels were estimated in the treated plasma samples by ELISA method using commercially available kit (R&D System, Inc., USA). The inhibition of the TNF-α[…] production may be taken as an indicator of inhibition of TACE activity.

| Compound | % of TNF-α inhibition at 10 μM dose [%] |
| --- | --- |
| 2-3-Amino-3-{4-[2-(4-methoxy)phenyl)-quinolin-4-ylmethoxy]-phenyl}-2-oxo-pyrrolidin-1-yl)-4-methyl-pentanoic acid hydroxyamide [Compound 14] | 85 |
| 2-{3-Amino-2-oxo-3-[4-2-p-tolyl-quinolin-4-ylmethoxy)-phenyl]-pyrrolidin-1-yl}-N-hydroxy-propionamide [Compound 9] | 82 |
| 2-{3-Amino-2-oxo-3-[4-(2-p-tolylsuinolin-4-ylmethoxy)-phenyl]-pyrrolidin-1-yl}-4-methyl-pentanoic acid hydroxyamide [Compound 8] | 84 |
| CC(C)CC(C(=O)NO)N1CCC(N)(c2ccc(OCc3cc(COC(C)C)nc4ccccc34)cc2)C1=O (centres unmarked) [Compound 5] | 94 |
| COc1cccc(-c2cc(COc3ccc(C4(N)CCN(C(CC(C)C)C(=O)NO)C4=O)cc3)c3ccccc3n2)c1 (centres unmarked) [Compound 27] | 79 |

Same assay, conditions: 10 μM test substance, LPS 1 μg/mL, 5 h at 37° C, plasma TNF-α by ELISA, read-out: % of TNF-α inhibition at 10 μM dose

| Compound | inhibition at 10 µM [%] |
| --- | --- |
| COc1ccc(-c2cc(COc3ccc([C@]4(N)CCN([C@H](C)C(=O)NO)C4=O)cc3)c3ccccc3n2)cc1 (stereo in doubt) [Compound 15, 2-(3-Amino-3-{4-[2-(4-methoxy-phenyl}-quinolin-4-ylmethoxy]-phenyl)-2-oxo-pyrrolidin-1-yl)-N-hydroxy-propionamide] | 84 |
| COCc1cc(COc2ccc([C@]3(N)CCN([C@H](CC(C)C)C(=O)NO)C3=O)cc2)c2ccccc2n1 [Compound 2] | 92 |
| COCCc1cc(COc2ccc(C3(N)CCN(C(CC(C)C)C(=O)NO)C3=O)cc2)c2ccccc2n1 (centres unmarked) [Compound 7, 2-(3-Amino-3-{4-[2-(2-methoxy-ethyl)quinolin-4-ylmethoxy]-phenyl}-2-oxo-pyrrolidin-1-yl)-4-methyl-pentanoic acid hydroxyamide] | 85 |
